pEC50: −log10 of the molar value. Read-outs that look alike come from different tables or passages of the source.
Experiments:
human androgen receptor [1] = biological target: T1, human androgen receptor (Homo sapiens, UniProt P10275); assay: androgenic activity (EC50 and intrinsic activity), transactivation bioassay in CHO-AR-pMMTV-LUC cells (Table 4); type: cell-based
T1 construct: expressed in transfected cells; host or cells: CHO cells, cell line CHO-AR-pMMTV-LUC 1G12-A5-CA
T1 sequence (P10275 1-920): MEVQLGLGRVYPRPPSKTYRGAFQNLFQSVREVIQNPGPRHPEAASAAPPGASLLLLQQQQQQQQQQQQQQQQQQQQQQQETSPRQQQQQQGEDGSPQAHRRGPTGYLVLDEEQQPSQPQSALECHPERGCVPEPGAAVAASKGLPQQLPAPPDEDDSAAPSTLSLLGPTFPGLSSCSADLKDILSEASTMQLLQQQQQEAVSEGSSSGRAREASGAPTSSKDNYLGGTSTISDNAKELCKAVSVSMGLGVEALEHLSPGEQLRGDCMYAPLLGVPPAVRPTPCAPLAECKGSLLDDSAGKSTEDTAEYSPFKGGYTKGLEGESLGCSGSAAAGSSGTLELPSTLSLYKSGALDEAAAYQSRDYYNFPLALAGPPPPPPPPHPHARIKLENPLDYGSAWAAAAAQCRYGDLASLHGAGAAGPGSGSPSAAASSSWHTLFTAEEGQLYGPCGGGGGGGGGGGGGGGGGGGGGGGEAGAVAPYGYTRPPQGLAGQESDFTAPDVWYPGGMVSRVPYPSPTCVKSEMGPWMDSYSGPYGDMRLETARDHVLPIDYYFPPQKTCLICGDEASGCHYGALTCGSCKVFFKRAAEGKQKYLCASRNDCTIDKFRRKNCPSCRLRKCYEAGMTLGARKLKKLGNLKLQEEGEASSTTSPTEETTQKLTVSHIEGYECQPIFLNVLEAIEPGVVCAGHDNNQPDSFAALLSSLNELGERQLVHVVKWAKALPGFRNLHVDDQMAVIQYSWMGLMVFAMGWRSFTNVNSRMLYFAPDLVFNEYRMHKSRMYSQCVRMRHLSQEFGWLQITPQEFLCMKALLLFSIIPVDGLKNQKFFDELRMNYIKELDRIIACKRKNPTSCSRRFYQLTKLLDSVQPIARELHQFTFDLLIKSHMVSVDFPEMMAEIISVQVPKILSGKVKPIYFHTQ
Procedure: (§1) Compounds were tested for their Androgen Receptor activity in a transactivation assay and in a binding assay.
(§2) The (anti-)androgenic activity of test compounds (EC50 and intrinsic activity) was determined in an in vitro bioassay of Chinese hamster ovary (CHO) cells stably transfected with the human androgen receptor expression plasmid and a reporter plasmid in which the MMTV-promoter is linked to the luciferase reporter gene. The cell-line CHO-AR-pMMTV-LUC 1G12-A5-CA is described in Schoonen et al. (2000), Journal of Steroid Biochemistry and Molecular Biology 74(4):213-222. The antiandrogenic activity of a test compound was determined by the inhibition of the transactivation via the androgen receptor of the enzyme luciferase in the presence of 1 nM DHT (5α-dihydrotestosterone, 17β-hydroxy-5α-androstan-3-one). Intrinsic activity of antiandrogenic activity was determined in the presence of the reference antiandrogen 2-Hydroxy-2-methyl-N-(4-nitro-3-trifluoromethyl-phenyl)-propionamide(Hydroxyflutamide), and set at 100%. For androgenic activity, maximal intrinsic activity in the presence of 100 nM DHT was set at 100%.

human androgen receptor [2] = biological target: T1, human androgen receptor; assay: cell-based; details: in the presence of 1 nM DHT
Procedure: as §1, §2

human androgen receptor [3] = biological target: T1, human androgen receptor; assay: androgenic activity (EC50, potency, efficacy), transactivation bioassay in CHO-AR-pMMTV-LUC cells in the presence of 0.1 μmol/l onapristone (Table 5); type: cell-based; details: for Emax: read-out: ago efficacy; for ago potency: potency expressed as percentage of DHT activity, in the presence of 0.1 μmol/l onapristone
Procedure: The androgenic activity (EC50, potency, and efficacy) of the compounds in Table 5 was determined in an in vitro bioassay of Chinese hamster ovary (CHO) cells stably transfected with the human androgen receptor expression plasmid and a reporter plasmid in which the MMTV promoter is linked to the luciferase reporter gene. The cell line CHO-AR-pMMTV-LUC 1G12-A5-CA is described in Schoonen et al. (J. Steroid Biochem. Moles. Biol. […]; 74: 213-222). The androgen receptor activity of compounds was determined in the presence of 0.1 μmol/l onapristone. The maximal efficacy in the presence of 100 nmol/l DHT was set as 100%. The potencies are expressed as percentage of DHT activity.

[4] = androgenic activity, read-out: ago EC50
[5] = antiandrogenic activity, read-out: ant EC50
[6] = maximal intrinsic activity, activity in the presence of 100 nM DHT set at 1.00, CHO-AR-pMMTV-LUC cells, 0.1 μmol/l onapristone

| Structure (SMILES) | pEC50 (human androgen receptor [1]; [4]) | pEC50 (human androgen receptor [2]; [5]) | also measured |
| --- | --- | --- | --- |
| COc1ccc2c([S+]([O-])c3ccccc3[N+](=O)[O-])cn(Cc3cc(F)cc(F)c3)c2c1 (stereo not drawn) [Compound 64, 1-(3,5-Difluoro-benzyl)-6-methoxy-3-(2-nitro-benzenesulfinyl)-1H-indole] | < 5.00 | > 6.00 | – |
| COc1ccc2c(Sc3ccccn3)cn(Cc3cc(F)cc(F)c3)c2c1 [Compound 65, 1-(3,5-Difluoro-benzyl)-6-methoxy-3-(pyridin-2-ylsulfanyl)-1H-indole] | 7.00 to 8.30 | < 5.00 | – |
| COc1ccc2c(Sc3cccc[n+]3[O-])cn(Cc3cc(F)cc(F)c3)c2c1 [Compound 66] | > 6.00 | 7.00 to 8.30 | – |
| COc1ccc2c(Sc3ccccc3[N+](=O)[O-])cn(Cc3cccc(Cl)c3)c2c1 [Compound 67] | 7.00 to 8.30 | < 5.00 | – |
| COc1ccc2c(Sc3ccccc3[N+](=O)[O-])cn(Cc3cccc(C#N)c3)c2c1 [Compound 68] | > 8.30 | < 5.00 | – |
| COc1ccc2c(Sc3ccccc3[N+](=O)[O-])cn(Cc3cc(F)cc(C(F)(F)F)c3)c2c1 [Compound 69] | 7.00 to 8.30 | < 5.00 | – |
| COc1ccc2c(Sc3ccccc3[N+](=O)[O-])cn(Cc3cc(F)ccc3C(F)(F)F)c2c1 [Compound 70] | 7.00 to 8.30 | < 5.00 | – |
| COc1ccc2c(Sc3ccccc3[N+](=O)[O-])cn(Cc3cccc(F)c3)c2c1 [Compound 71] | > 8.30 | < 5.00 | – |
| COc1cccc(Cn2cc(Sc3ccccc3[N+](=O)[O-])c3ccc(OC)cc32)c1 [Compound 72] | 7.00 to 8.30 | < 5.00 | – |
| COc1ccc2c(Sc3ccccc3[N+](=O)[O-])cn(Cc3cccc(C)c3)c2c1 [Compound 73] | 7.00 to 8.30 | < 5.00 | – |
| COc1ccc2c(Sc3ccccc3[N+](=O)[O-])cn(Cc3cccc([N+](=O)[O-])c3)c2c1 [Compound 74] | – | – | pEC50 (human androgen receptor [1]; ago EC50, androgenic activity): > 8.30; pEC50 (human androgen receptor [2]; ant EC50, antiandrogenic activity): < 5.00 |
| COc1ccc2c(Sc3ccccc3[N+](=O)[O-])cn(Cc3cccnc3)c2c1 [Compound 75] | > 8.30 | < 5.00 | – |
| COc1ccc2c(Sc3ccccc3[N+](=O)[O-])cn(Cc3ccc(Cl)c(C(F)(F)F)c3)c2c1 [Compound 76] | > 6.00 | < 5.00 | – |
| COc1ccc2c(Sc3ccccc3[N+](=O)[O-])cn(Cc3cccc(OC(F)(F)F)c3)c2c1 [Compound 77] | 7.00 to 8.30 | < 5.00 | – |
| COc1ccc2c(Sc3ccccc3[N+](=O)[O-])cn(Cc3cccc(C(F)(F)F)c3)c2c1 [Compound 78] | 7.00 to 8.30 | < 5.00 | – |
| COc1ccc2c(Sc3ccccc3[N+](=O)[O-])cn(Cc3csc(C)n3)c2c1 [Compound 79] | 7.00 to 8.30 | < 5.00 | – |
| COc1ccc2c(Sc3ccccc3[N+](=O)[O-])cn(Cc3c(C)noc3C)c2c1 [Compound 80] | > 6.00 | > 6.00 | – |
| COc1ccc2c(Sc3ccccc3[N+](=O)[O-])cn(Cc3ccc(Cl)cc3)c2c1 [Compound 81] | > 6.00 | > 8.30 | – |

| Structure (SMILES) | pEC50 (human androgen receptor [1]; [4]) | pEC50 (human androgen receptor [2]; [5]) | also measured |
| --- | --- | --- | --- |
| COc1ccc2c(Sc3ccccc3[N+](=O)[O-])cn(Cc3ccc(C#N)cc3)c2c1 [Compound 82] | 7.00 to 8.30 | < 5.00 | – |
| COc1ccc2c(Sc3ccccc3[N+](=O)[O-])cn(Cc3ccc(F)cc3)c2c1 [Compound 83] | 7.00 to 8.30 | < 5.00 | – |
| COc1ccc(Cn2cc(Sc3ccccc3[N+](=O)[O-])c3ccc(OC)cc32)cc1 [Compound 84] | > 6.00 | 5.00 to 6.00 | – |
| COc1ccc2c(Sc3ccccc3[N+](=O)[O-])cn(Cc3ccc(C)cc3)c2c1 [Compound 85] | > 6.00 | < 5.00 | – |
| COc1ccc2c(Sc3ccccc3[N+](=O)[O-])cn(Cc3cnc(Cl)s3)c2c1 [Compound 87] | 7.00 to 8.30 | < 5.00 | – |
| COc1ccc2c(Sc3ccccc3[N+](=O)[O-])cn(Cc3ccc(Cl)s3)c2c1 [Compound 88] | 7.00 to 8.30 | < 5.00 | – |
| COc1ccc2c(Sc3ccccc3[N+](=O)[O-])cn(CC3CCCCC3)c2c1 [Compound 89] | 7.00 to 8.30 | > 8.30 | – |
| O=[N+]([O-])c1ccccc1Sc1cn(Cc2ccccc2)c2ccccc12 [Compound 90] | > 6.00 | < 5.00 | – |
| COc1ccc2c(c1)c(Sc1ccccc1[N+](=O)[O-])cn2Cc1ccccc1 [Compound 91] | < 5.00 | 5.00 to 6.00 | – |
| COc1ccc2c(Sc3ccccc3[N+](=O)[O-])cn(Cc3ccccc3)c2c1 [Compound 92] | > 8.30 | < 5.00 | – |
| COc1ccc2c(Sc3ccccc3[N+](=O)[O-])cn(Cc3ccncc3)c2c1 [Compound 93, 6-Methoxy-3-(2-nitro-phenylsulfanyl)-1-pyridin-4-ylmethyl-1H-indole] | – | – | Emax (human androgen receptor [3]; [6]): 50 to 80%; ago potency (human androgen receptor [3]; CHO-AR-pMMTV-LUC cells): ± (between 0.1% and 1%) |
| COc1ccc2c(Sc3ccccc3[N+](=O)[O-])cn(Cc3cc(F)c(F)c(F)c3)c2c1 [Compound 94, 6-Methoxy-3-(2-nitro-phenylsulfanyl)-1-(3,4,5-trifluoro-benzyl)-1H-indole] | – | – | Emax (human androgen receptor [3]; [6]): > 80%; ago potency (human androgen receptor [3]; CHO-AR-pMMTV-LUC cells): + (between 1% and 5%) |
| COc1ccc2c(Sc3ccccc3[N+](=O)[O-])cn(Cc3cc(F)cc(F)c3F)c2c1 [Compound 95, 6-Methoxy-3-(2-nitro-phenylsulfanyl)-1-(2,3,5-trifluoro-benzyl)-1H-indole] | – | – | Emax (human androgen receptor [3]; [6]): > 80%; ago potency (human androgen receptor [3]; CHO-AR-pMMTV-LUC cells): ± (between 0.1% and 1%) |
| COc1ccc2c(Sc3ccccc3[N+](=O)[O-])cn(Cc3ccc(Cl)nc3)c2c1 [Compound 96, 1-(6-Chloro-pyridin-3-ylmethyl)-6-methoxy-3-(2-nitro-phenylsulfanyl)-1H-indole] | – | – | Emax (human androgen receptor [3]; [6]): 20 to 50%; ago potency (human androgen receptor [3]; CHO-AR-pMMTV-LUC cells): ± (between 0.1% and 1%) |
| O=C(CF)Nc1ccc2c(Sc3ccccc3[N+](=O)[O-])cn(Cc3cc(F)cc(F)c3)c2c1 [Compound 97, N-[1-(3,5-Difluoro-benzyl)-3-(2-nitro-phenylsulfanyl)-1H-indol-6-yl]-2-fluoro-acetamide] | – | – | ago potency (human androgen receptor [3]; CHO-AR-pMMTV-LUC cells): + (between 1% and 5%); Emax (human androgen receptor [3]): > 80% |
| O=C(Nc1ccc2c(Sc3ccccc3[N+](=O)[O-])cn(Cc3cc(F)cc(F)c3)c2c1)C(F)F [Compound 98, N-[1-(3,5-Difluoro-benzyl)-3-(2-nitro-phenylsulfanyl)-1H-indol-6-yl]-2,2-difluoro-acetamide] | – | – | Emax (human androgen receptor [3]; [6]): 50 to 80%; ago potency (human androgen receptor [3]; CHO-AR-pMMTV-LUC cells): ++ (>5%) |
| CCC(=O)Nc1ccc2c(Sc3ccccc3[N+](=O)[O-])cn(Cc3cc(F)cc(F)c3)c2c1 [Compound 99, N-[1-(3,5-Difluoro-benzyl)-3-(2-nitro-phenylsulfanyl)-1H-indol-6-yl]-propionamide] | – | – | Emax (human androgen receptor [3]; [6]): 50 to 80%; ago potency (human androgen receptor [3]; CHO-AR-pMMTV-LUC cells): ± (between 0.1% and 1%) |
| O=C(CF)Nc1ccc2c(Sc3ccccc3[N+](=O)[O-])cn(Cc3ccccn3)c2c1 [Compound 100, 2-Fluoro-N-[3-(2-nitro-phenylsulfanyl)-1-pyridin-2-ylmethyl-1H-indol-6-yl]-acetamide] | – | – | ago potency (human androgen receptor [3]; CHO-AR-pMMTV-LUC cells): + (between 1% and 5%); Emax (human androgen receptor [3]): > 80% |
